Patent US20110053947A1, “Arylchalcogenoarylalkyl-substituted imidazolidine-2,4-diones, process for preparation thereof, medicaments comprising these compounds and use thereof” (SANOFI-AVENTIS, priority 2008, published 2011)
pIC50, pKi: −log10 of the molar value. Counter-ions that a name gives are not always drawn. Like-named read-outs stand apart in the source and are kept apart here.

Legend:
[1] = target: T1, cannabinoid 1 receptor (hCB1R) (Homo sapiens, UniProt P21554); test: In vitro functional assay with recombinant cells (FLIPR), CB1; type: cell-based; conditions: intracellular Ca2+ change after reference agonist, 20 min preincubation
T1 construct: expressed in transfected cells; host or cells: HEK293
T1 sequence (P21554 whole entry): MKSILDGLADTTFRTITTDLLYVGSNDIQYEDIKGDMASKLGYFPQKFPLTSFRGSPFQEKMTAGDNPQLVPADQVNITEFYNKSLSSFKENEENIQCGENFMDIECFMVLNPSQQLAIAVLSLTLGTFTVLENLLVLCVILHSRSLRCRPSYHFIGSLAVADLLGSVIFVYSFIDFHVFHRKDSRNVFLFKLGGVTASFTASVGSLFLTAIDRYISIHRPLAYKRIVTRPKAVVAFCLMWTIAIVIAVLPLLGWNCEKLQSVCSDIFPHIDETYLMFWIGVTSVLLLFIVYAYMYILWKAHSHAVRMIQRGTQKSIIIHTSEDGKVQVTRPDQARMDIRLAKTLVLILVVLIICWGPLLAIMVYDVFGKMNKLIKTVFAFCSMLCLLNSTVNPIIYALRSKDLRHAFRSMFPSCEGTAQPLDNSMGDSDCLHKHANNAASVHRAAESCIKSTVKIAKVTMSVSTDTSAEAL
Protocol: (§1) In vitro functional assays with recombinant cells:
(§2) Function-testing assays were performed by means of the FLIPR technique (“Fluorometric Imaging Plate Reader”, Molecular Devices Corp.).
(§3) To this end, ligand-induced changes in the intracellular concentration of Ca^2+ in recombinant HEK293 cells, which expressed both a cannabinoid receptor (CB1 or CB2) and G-protein Galphal6, were determined. For the studies, cells were sown into 96-well microtiter plates (60 000 cells/well) and left to grow overnight. The medium was removed and the cells were incubated in buffer which contained the fluorescent dye Fluo-4. After this loading with dye, the cells were washed, test substance was added dissolved in buffer, the mixture was incubated for 20 minutes, a known cannabinoid receptor agonist as a reference agonist was added in buffer and, finally, the changes in the intracellular Ca^2+ concentration were measured in the FLIPR unit.
Results were presented as the percentage change relative to the control (0%: analogous experiment without test substance and without reference agonist, i.e. only with buffer; 100%: analogous experiment without test substance, but with reference agonist in excess), and used to calculate dose/action curves, and IC50 values were determined.
The values of the functional assay compared to the cannabinoid 1 receptor including illustrative selectivities compared to the cannabinoid 2 receptor can be taken from table 1 which follows.

[2] = target: T2, cannabinoid 2 receptor (hCB2R) (Homo sapiens, UniProt P34972); test: In vitro functional assay with recombinant cells (FLIPR), CB2; type: cell-based; conditions: recombinant HEK293 cells expressing CB2 and G-protein; intracellular Ca2+ change after reference agonist, 20 min preincubation; read-out: hCB2R: FLIPR; IC50
T2 construct: expressed in transfected cells; host or cells: HEK293
T2 sequence (P34972 whole entry): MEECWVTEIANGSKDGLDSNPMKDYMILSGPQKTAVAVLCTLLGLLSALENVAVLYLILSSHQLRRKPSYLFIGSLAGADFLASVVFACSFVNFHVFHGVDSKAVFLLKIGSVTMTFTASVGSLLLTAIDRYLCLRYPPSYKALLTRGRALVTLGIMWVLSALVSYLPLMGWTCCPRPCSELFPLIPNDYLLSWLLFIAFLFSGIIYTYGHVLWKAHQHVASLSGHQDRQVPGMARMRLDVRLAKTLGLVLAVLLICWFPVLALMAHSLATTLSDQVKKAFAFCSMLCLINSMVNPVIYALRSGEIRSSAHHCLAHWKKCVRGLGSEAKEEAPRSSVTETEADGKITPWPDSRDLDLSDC
Protocol: as §1, §2, §3

[3] = target: T3, CHO-K1/cannabinoid CB1 (hCB1R) (Homo sapiens, UniProt P21554); test: Binding to the CB1 receptor ([3H]-SR141716A displacement); conditions: [3H]-SR141716A 0.5 nM; Ki from IC50 and Kd by Cheng-Prusoff; average of double determination; read-out: hCB1R; Bindung Ki
T3 construct: expressed in transfected cells; host or cells: CHO-K1
T3 sequence (P21554 whole entry): as the sequence (P21554 whole entry) above
Protocol: Binding to the CB 1 Receptor:
Test compounds: The compounds (3 μl, 10 mM, 100% DMSO), pipetted into 96-well PP microtiter plates, were diluted with 27 μl of 100% DMSO (dimethyl sulfoxide). Proceeding from this solution, further 3-fold dilution steps were undertaken by transferring 10 μl in each case to a new PP microtiter plate and adding a further 20 μl of 100% DMSO. In each case 6 μA of these solutions were transferred into new 96-well PP microtiter plates and made up with 144 μl of assay buffer. The end concentrations ranged from 10 μM to 0.005 μM. Negative control: AM 251, dissolved in assay buffer with 1% DMSO, was added to the dilution series in the microtiter plates as a control. The end concentration was 1 μM. Blank control: assay buffer with 1% DMSO was added to the dilution series of the microtiter plates as a blank control.
Summary of the Assay Parameters:
The values were calculated using the corrected raw data.
The values reported were obtained as average values of a double determination. The IC50 values were calculated from the measurements with the program Xlfit, formula 205. Ki values were obtained from the IC50 and Kd values utilizing the Cheng-Prusoff equation: […]
Literature: Cheng, Y.-C., and Prusoff, W. H. (1973) Biochem. Pharmacol 22, 3099-3108 Results: Ki values of example compounds; Table 2: […]

[4] = recombinant HEK293 cells expressing CB1 and G-protein, read-out: hCB1R: FLIPR, IC50
[5] = hCB1R: FLIPR, IC50, recombinant HEK293 cells expressing CB1 and G-protein

| Compound | pKi [3] | other results |
| --- | --- | --- |
| CC1(C)C(=O)N(c2ccc(C#N)c(C(F)(F)F)c2)C(=O)N1Cc1ccccc1NC(=O)Nc1ccc(S(=O)(=O)O)cc1 [Example 2, 4-(3-{2-[3-(4-cyano-3-trifluoromethylphenyl)-5,5-dimethyl-2,4-dioxoimidazolidin-1-ylmethyl]phenyl}ureido)benzenesulfonic acid] |  | pIC50 [1, 4]: 6.66; pIC50 [2]: < 5.00 |
| CC1(C)C(=O)N(c2ccc(C#N)c(C(F)(F)F)c2)C(=O)N1Cc1ccccc1NC(=O)Nc1ccc(C(=O)O)cc1 [Example 4, 4-(3-{2-[3-(4-Cyano-3-trifluoromethylphenyl)-5,5-dimethyl-2,4-dioxo-imidazolidin-1-ylmethyl]phenyl}ureido)benzoic acid] |  | pIC50 [1, 4]: 6.96; pIC50 [2]: < 5.00 |
| CC1(C)C(=O)N(c2ccc(C#N)c(C(F)(F)F)c2)C(=O)N1Cc1ccccc1NC(=O)Nc1ccc(C#N)cc1 [Example 6, 1-(4-cyanophenyl)-3-{2-[3-(4-cyano-3-trifluoromethylphenyl)-5,5-dimethyl-2,4-dioxoimidazolidin-1-ylmethyl]phenyl}urea] |  | pIC50 [1, 5]: 7.96; pIC50 [2]: < 5.00 |
| CC1(C)C(=O)N(c2ccc(C#N)c(C(F)(F)F)c2)C(=O)N1Cc1ccccc1NC(=O)Nc1ccc(F)cc1F [Example 7, 1-{2-[3-(4-cyano-3-trifluoromethylphenyl)-5,5-dimethyl-2,4-dioxoimidazolidin-1-ylmethyl]phenyl}-3-(2,4-difluorophenyl)urea] | 7.14 |  |
| CC1(C)C(=O)N(c2ccc(C#N)c(C(F)(F)F)c2)C(=O)N1Cc1ccccc1NC(=O)Nc1cccc(C#N)c1 [Example 8, 1-(3-cyanophenyl)-3-{2-[3-(4-cyano-3-trifluoromethylphenyl)-5,5-dimethyl-2,4-dioxoimidazolidin-1-ylmethyl]phenyl}urea] |  | pIC50 [1, 5]: 7.46; pIC50 [2]: < 5.00 |
| CC1(C)C(=O)N(c2ccc(C#N)c(C(F)(F)F)c2)C(=O)N1Cc1ccccc1NC(=O)Nc1ccccc1 [Example 9, 1-{2-[3-(4-cyano-3-trifluoromethylphenyl)-5,5-dimethyl-2,4-dioxoimidazolidin-1-ylmethyl]phenyl}-3-phenylurea] | 7.49 |  |
| C[S+]([O-])c1ccc(NC(=O)Nc2ccccc2CN2C(=O)N(c3ccc(C#N)c(C(F)(F)F)c3)C(=O)C2(C)C)cc1 (stereo not shown) [Example 12, 1-{2-[3-(4-cyano-3-trifluoromethylphenyl)-5,5-dimethyl-2,4-dioxoimidazolidin-1-ylmethyl]phenyl}-3-(4-methanesulfinylphenyl)urea] | 7.96 |  |
| CC1(C)C(=O)N(c2ccc(C#N)c(C(F)(F)F)c2)C(=O)N1Cc1ccccc1NC(=O)Nc1ccc(S(C)(=O)=O)cc1 [Example 13, 1-{2-[3-(4-cyano-3-trifluoromethylphenyl)-5,5-dimethyl-2,4-dioxoimidazolidin-1-ylmethyl]phenyl}-3-(4-methanesulfonylphenyl)urea] | 8.15 |  |
| CC1(C)C(=O)N(c2ccc(C#N)c(C(F)(F)F)c2)C(=O)N1Cc1ccccc1NS(=O)(=O)Cc1ccc(F)cc1F [Example 15, N-{2-[3-(4-cyano-3-trifluoromethylphenyl)-5,5-dimethyl-2,4-dioxoimidazolidin-1-ylmethyl]phenyl}-C-(2,4-difluorophenyl)methanesulfonamide] | 7.24 |  |
| CC1(C)C(=O)N(c2ccc(C#N)c(C(F)(F)F)c2)C(=O)N1Cc1ccc(F)cc1NC(=O)Nc1ccc(C(=O)O)cc1 [Example 18, 4-(3-{2-[3-(4-Cyano-3-trifluoromethylphenyl)-5,5-dimethyl-2,4-dioxoimidazolidin-1-ylmethyl]-5-fluorophenyl}ureido)benzoic acid] | 7.17 |  |
| CC1(C)C(=O)N(c2ccc(C#N)c(C(F)(F)F)c2)C(=O)N1Cc1ccc(F)cc1NC(=O)Nc1cc(Cl)nc(Cl)c1 [Example 21, 1-{2-[3-(4-cyano-3-trifluoromethylphenyl)-5,5-dimethyl-2,4-dioxoimidazolidin-1-ylmethyl]-5-fluorophenyl}-3-(2,6-dichloropyridin-4-yl)urea] | 7.47 |  |
| CC1(C)C(=O)N(c2ccc(F)c(C(F)(F)F)c2)C(=O)N1Cc1ccc(F)cc1NC(=O)Nc1ccc(N)cc1 [Example 23, 1-(4-Aminophenyl)-3-{5-fluoro-2-[3-(4-fluoro-3-trifluoromethylphenyl)-5,5-dimethyl-2,4-dioxoimidazolidin-1-ylmethyl]phenyl}urea hydrochloride] | 7.77 |  |
| CC1(C)C(=O)N(c2ccc(F)c(C(F)(F)F)c2)C(=O)N1Cc1ccc(F)cc1NC(=O)Nc1ccc(S(N)(=O)=O)cc1 [Example 24, 4-(3-{5-fluoro-2-[3-(4-fluoro-3-trifluoromethylphenyl)-5,5-dimethyl-2,4-dioxoimidazolidin-1-ylmethyl]phenyl}ureido)benzenesulfonamide] | 8.05 |  |
| CCOP(=O)(OCC)c1ccc(NC(=O)Nc2cc(F)ccc2CN2C(=O)N(c3ccc(F)c(C(F)(F)F)c3)C(=O)C2(C)C)cc1 [Example 32, Diethyl [4-(3-{5-fluoro-2-[3-(4-fluoro-3-trifluoromethylphenyl)-5,5-dimethyl-2,4-dioxoimidazolidin-1-ylmethyl]phenyl}ureido)phenyl]phosphonate] | 7.40 |  |
| COC(=O)c1ccc(NC(=O)Nc2cc(F)ccc2CN2C(=O)N(c3ccc(C#N)c(C(F)(F)F)c3)C(=O)C2(C)C)nc1 [Example 42, methyl 6-(3-{2-[3-(4-cyano-3-trifluoromethylphenyl)-5,5-dimethyl-2,4-dioxoimidazolidin-1-ylmethyl]-5-fluorophenyl}ureido)nicotinate] | 7.46 |  |
| CC1(C)C(=O)N(c2ccc(C#N)c(C(F)(F)F)c2)C(=O)N1Cc1ccc(F)cc1NC(=O)Nc1ccnc(O)c1 [Example 43, 1-{2-[3-(4-cyano-3-trifluoromethylphenyl)-5,5-dimethyl-2,4-dioxoimidazolidin-1-ylmethyl]-5-fluorophenyl}-3-(2-hydroxypyridin-4-yl)urea] | 7.77 | pIC50 [1, 4]: 7.57 |
| CCS(=O)(=O)c1ccc(NC(=O)Nc2cc(F)ccc2CN2C(=O)N(c3ccc(C#N)c(C4CC4)c3)C(=O)C2(C)C)cc1 [Example 45, 1-{2-[3-(4-Cyano-3-cyclopropylphenyl)-5,5-dimethyl-2,4-dioxoimidazolidin-1-ylmethyl]-5-fluorophenyl}-3-(4-ethanesulfonylphenyl)urea] | 8.22 |  |
| COC(=O)CS(=O)(=O)c1ccc(NC(=O)Nc2cc(F)ccc2CN2C(=O)N(c3ccc(C#N)c(C4CC4)c3)C(=O)C2(C)C)cc1 [Example 46, Methyl [4-(3-{2-[3-(4-cyano-3-cyclopropylphenyl)-5,5-dimethyl-2,4-dioxoimidazolidin-1-ylmethyl]-5-fluorophenyl}ureido)benzenesulfonyl]acetate] | 8.15 |  |
| COC(=O)CSc1ccc(NC(=O)Nc2cc(F)ccc2CN2C(=O)N(c3ccc(C#N)c(C(F)(F)F)c3)C(=O)C2(C)C)cc1 [Example 49] | 7.96 | pIC50 [1, 4]: 8.70 |
| COC(=O)c1ccc(NC(=O)Nc2cc(F)ccc2CN2C(=O)N(c3ccc(F)c(C(F)(F)F)c3)C(=O)C2(C)C)cc1 [Example 59, methyl 4-(3-{5-fluoro-2-[3-(4-fluoro-3-trifluoromethylphenyl)-5,5-dimethyl-2,4-dioxoimidazolidin-1-ylmethyl]phenyl}ureido)benzoate] | 7.54 |  |
| CC1(C)C(=O)N(c2ccc(F)c(C(F)(F)F)c2)C(=O)N1Cc1ccc(Cl)cc1NC(=O)Nc1ccc(S(N)(=O)=O)cc1 [Example 69, 4-(3-{5-chloro-2-[3-(4-fluoro-3-trifluoromethylphenyl)-5,5-dimethyl-2,4-dioxoimidazolidin-1-ylmethyl]phenyl}ureido)benzenesulfonamide] |  | pIC50 [1, 4]: 7.96 |
| COc1ccc(CN2C(=O)N(c3ccc(F)c(C(F)(F)F)c3)C(=O)C2(C)C)c(NC(=O)Nc2ccc(S(N)(=O)=O)cc2)c1 [Example 70, 4-(3-{2-[3-(4-fluoro-3-trifluoromethylphenyl)-5,5-dimethyl-2,4-dioxoimidazolidin-1-ylmethyl]-5-methoxyphenyl}ureido)benzenesulfonamide] |  | pIC50 [1, 4]: 7.85 |
